Tests used:
Assay in all cases: TR-FRET nuclear receptor binding assay
[1] = target: T1, PPARδ(β) (Homo sapiens, UniProt Q03181)
T1 sequence (Q03181 1-441): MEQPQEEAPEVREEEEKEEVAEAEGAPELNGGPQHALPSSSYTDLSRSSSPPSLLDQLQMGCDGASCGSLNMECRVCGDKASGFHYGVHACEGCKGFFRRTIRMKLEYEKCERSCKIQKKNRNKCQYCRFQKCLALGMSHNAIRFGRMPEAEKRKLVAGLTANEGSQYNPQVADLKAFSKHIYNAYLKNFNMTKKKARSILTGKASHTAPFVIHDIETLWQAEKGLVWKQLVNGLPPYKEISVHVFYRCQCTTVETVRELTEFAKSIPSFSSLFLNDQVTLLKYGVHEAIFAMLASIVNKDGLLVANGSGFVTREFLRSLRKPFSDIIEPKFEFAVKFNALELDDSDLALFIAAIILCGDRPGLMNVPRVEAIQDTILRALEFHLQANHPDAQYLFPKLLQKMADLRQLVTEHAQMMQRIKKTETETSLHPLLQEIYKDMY

[2] = target: T2, PPARγ (Homo sapiens, UniProt P37231)
T2 sequence (P37231 1-505): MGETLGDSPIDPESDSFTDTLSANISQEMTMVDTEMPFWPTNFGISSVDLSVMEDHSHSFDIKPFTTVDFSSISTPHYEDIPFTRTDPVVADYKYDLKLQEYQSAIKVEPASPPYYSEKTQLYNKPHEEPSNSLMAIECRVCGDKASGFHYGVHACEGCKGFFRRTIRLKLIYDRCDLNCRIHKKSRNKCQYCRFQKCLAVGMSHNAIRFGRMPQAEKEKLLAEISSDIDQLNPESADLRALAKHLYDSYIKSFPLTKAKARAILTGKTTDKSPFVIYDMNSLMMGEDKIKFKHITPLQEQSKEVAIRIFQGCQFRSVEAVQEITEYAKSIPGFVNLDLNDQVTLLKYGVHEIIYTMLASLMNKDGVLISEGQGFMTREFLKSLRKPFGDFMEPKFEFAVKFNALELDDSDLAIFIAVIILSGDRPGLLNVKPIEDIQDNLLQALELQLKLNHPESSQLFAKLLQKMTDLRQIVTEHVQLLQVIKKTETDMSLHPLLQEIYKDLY

[3] = target: T3, PPARα (Homo sapiens, UniProt Q07869)
T3 sequence (Q07869 1-468): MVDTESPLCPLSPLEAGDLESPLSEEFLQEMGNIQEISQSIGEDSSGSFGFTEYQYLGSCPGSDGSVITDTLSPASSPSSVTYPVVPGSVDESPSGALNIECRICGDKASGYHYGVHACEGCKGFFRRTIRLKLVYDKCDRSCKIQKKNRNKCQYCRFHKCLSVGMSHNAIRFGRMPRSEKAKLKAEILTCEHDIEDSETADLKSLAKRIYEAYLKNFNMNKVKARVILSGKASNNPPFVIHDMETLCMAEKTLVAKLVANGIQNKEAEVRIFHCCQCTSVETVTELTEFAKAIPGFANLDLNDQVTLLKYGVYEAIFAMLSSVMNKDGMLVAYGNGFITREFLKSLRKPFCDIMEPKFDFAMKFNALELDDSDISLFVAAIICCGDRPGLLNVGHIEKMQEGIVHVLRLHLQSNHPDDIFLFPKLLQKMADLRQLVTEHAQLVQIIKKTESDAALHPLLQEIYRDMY

CC1=C(/C=C/C(C)=C\C=C\C(C)=C\C(=O)O)C(C)(C)CCC1 [9-cis RA]
No binding: EC50 nuclear receptor binding PPARδ(β) [1] | EC50 nuclear receptor binding PPARγ [2] | EC50 nuclear receptor binding PPARα [3]

CC1=C(/C=C/C(C)=C/C=C/C(C)=C/C(=O)O)C(C)(C)CCC1 [ATRA, all-trans retinoic acid]
No binding: EC50 nuclear receptor binding PPARδ(β) [1] | EC50 nuclear receptor binding PPARγ [2] | EC50 nuclear receptor binding PPARα [3]
